Results taken from EP0385952A2, “Use of a naphthalenmethanamino derivative as antiinflammatory agent and pharmaceutical compositions containing it” (SANDOZ AG, priority 1989, dated 1990).
Marks after values point to notes of the source that are not given here.

Legend:
human keratinocytes = assay: Inhibition of TPA-stimulated PGE₂ synthesis of human keratinocytes; assay type: cell-based; conditions: Keratinocyte, TPA 100 ng/ml, 24 hours, read-out: IC₅₀, inhibition of TPA-stimulated PGE₂ synthesis
Procedure: Cultures of human keratinocytes are obtained by trypsinisation of neonatal human foreskins. The keratinocyte cultures are grown in a supplemented keratinocyte growth medium (KGM; Clonetics) using culture flasks. Passages 3-5 of 80-90 % confluent keratinocytes are resuspended in KGM at a concentration of 1x10⁵ cells/ml and 0.1 ml are plated into 96 well-microtiter plates in the presence of test compound. For the stimulation of PGE₂ release human keratinocytes or the HACAT human skin keratinocyte cell line [P. Boukamp et al., J. Cell Biol. 106 (1988) 761-771] are grown to confluence in KGM medium and stimulated with TPA (100 ng/ml) for 24 hours. Conditioned media are centrifuged and concentrations of PGE₂ are determined using a ¹²⁵I radioimmunoassay (NEN, Boston, Mass.). Each sample is assayed in duplicate.

5-lipoxygenase = target: T1, 5-lipoxygenase (Homo sapiens, UniProt P09917); assay: 5-lipoxygenase inhibition (neutrophil functions); assay type: cell-based; conditions: read-out: IC₅₀ for 5-lipoxygenase
T1 construct: endogenous in cells
T1 sequence (P09917 1-674): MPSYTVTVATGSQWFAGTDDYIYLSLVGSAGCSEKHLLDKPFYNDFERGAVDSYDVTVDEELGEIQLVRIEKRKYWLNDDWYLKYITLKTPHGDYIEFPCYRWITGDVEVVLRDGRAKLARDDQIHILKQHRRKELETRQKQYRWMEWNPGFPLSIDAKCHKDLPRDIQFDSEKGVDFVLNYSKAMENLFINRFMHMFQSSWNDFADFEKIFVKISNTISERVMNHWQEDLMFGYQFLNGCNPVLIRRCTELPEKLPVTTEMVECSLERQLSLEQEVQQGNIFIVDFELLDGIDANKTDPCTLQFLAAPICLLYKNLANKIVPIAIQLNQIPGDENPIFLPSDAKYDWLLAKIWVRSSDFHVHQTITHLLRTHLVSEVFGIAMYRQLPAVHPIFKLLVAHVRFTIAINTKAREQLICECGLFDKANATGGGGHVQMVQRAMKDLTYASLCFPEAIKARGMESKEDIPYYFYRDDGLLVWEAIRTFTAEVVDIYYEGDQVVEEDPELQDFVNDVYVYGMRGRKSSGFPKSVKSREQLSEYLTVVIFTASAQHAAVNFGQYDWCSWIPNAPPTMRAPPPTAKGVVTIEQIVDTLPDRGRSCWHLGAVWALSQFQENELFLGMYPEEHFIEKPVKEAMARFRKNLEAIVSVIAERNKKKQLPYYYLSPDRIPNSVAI

mice = assay: TPA-induced pinnal swelling in mice (irritant contact dermatitis, 2.1.2.); assay type: in vivo; conditions: therapeutic, topical, pinnal weight after 6 hours
Procedure: Skin irritation with arachidonic acid or cantharidin is often used to experimentally induce inflammation in order to evaluate the anti-inflammatory activity of a compound [see e.g. Inflammation 8 (1984) 134-135; 10 (1986) 205-214]. NMRI mice (8 animals per group) receive 10 µl of a 10 % solution of arachidonic acid [J.M. Young et al., J. Invest. Derm. 82 (1986) 367-371] in acetone or, respectively, 0.08 % cantharidin [K.E. Swingle et al., Arch. Int. Pharmacodyn. Ther. 254 (1981) 168-176] in acetone applied to the medial and lateral surface of the right external ear. Treatment is performed either prophylactically 30 minutes before irritation (arachidonic acid) or, respectively, either simultaneously with the application of irritant solution or therapeutically 20 minutes after irritation (cantharidin), by a single epicutaneous application of the test compound dissolved in a mixture of N,N-dimethylacetamide, acetone and alcohol (2:2:4). The evaluation of the test group is effected by comparison with a control group of animals having received on the right ear lobe only the carrier substance or the irritant solution. The animals are killed 1.5 hours (arachidonic acid) or, respectively, 17 hours (cantharidin) after application of the irritant and efficacy in assessed by determination of the differences in auricular weight. Differences in weights (D) of right (involved) and left (uninvolved) pinnae of animals treated with test compound and arachidonic acid or cantharidin (T-group) are compared with differences in mice treated with arachidonic acid only or cantharidin only (C-group). Efficacy (%) is calculated according to the equation: [formula]
This model is similar to the above (see 2.1.1.). Skin inflammation is induced with 15 µl of 0.23 % croton oil in a mixture of dimethylacetamide, acetone and ethanol (2:4:4), or with 10 µl of 0.005 % TPA [12-O-tetradecanoylphorbol-13-acetate; Sigma] prepared in acetone with 0.5 % dimethylsulfoxide. Topical treatment is performed either simultaneously with the irritation (croton oil) or 20 minutes after the application (TPA). The test compound is prepared in DAE. Efficacy is assessed 6 hours after onset of irritation by determination of the auricular weight as described above.

Solubility in water = assay type: physicochemical; conditions: at 25°C
NMRI mice = assay: Allergic contact dermatitis to oxazolone (2.3.); assay type: in vivo; conditions: therapeutic, test concentration 3.6 %, topical twice, pinnal weight after 24 hours, 0̸ = no activity
Procedure: Skin irritation with arachidonic acid or cantharidin is often used to experimentally induce inflammation in order to evaluate the anti-inflammatory activity of a compound [see e.g. Inflammation 8 (1984) 134-135; 10 (1986) 205-214]. NMRI mice (8 animals per group) receive 10 µl of a 10 % solution of arachidonic acid [J.M. Young et al., J. Invest. Derm. 82 (1986) 367-371] in acetone or, respectively, 0.08 % cantharidin [K.E. Swingle et al., Arch. Int. Pharmacodyn. Ther. 254 (1981) 168-176] in acetone applied to the medial and lateral surface of the right external ear. […] The animals are killed 1.5 hours (arachidonic acid) or, respectively, 17 hours (cantharidin) after application of the irritant and efficacy in assessed by determination of the differences in auricular weight. […] Efficacy (%) is calculated according to the equation: [formula]
The inhibition of allergic contact dermatitis to oxazolone in mice is determined. […] 24 hours after skin testing treatment-related inhibition of contact dermatitis is assessed by pinnal weight as described above (see 2.1.1.). […]

In the case of `CN(C/C=C/c1ccc(O)cc1)Cc1cccc2ccccc12` [compound of the invention, (E)-N-methyl-N-[3-(4-hydroxyphenyl)-2-propenyl]-1-naphthalene-methanamine], the IC50 (human keratinocytes) is reported as 1000 to 3000 nM, the IC50 (5-lipoxygenase) is reported as 44 µM and the “Efficacy (%)” value (mice; test concentration 1.2 %) is reported as 51%. The “Efficacy (%)” value (mice; test concentration 3.6 %) was 60*** %, the solubility (Solubility in water) was less than 100 µg/mL and the “Efficacy (%)” value (NMRI mice) was 42** %.
